Experimental data reported in patent US8722661B2, “Pyrrolopyrimidone and pyrrolopyridone inhibitors of tankyrase” (Genentech, Inc., priority 2012, dated 2014).

How the values were obtained:
Tankyrase 1 (TNKS1) = target: T1, Tankyrase 1 (TNKS1) (Homo sapiens, UniProt O95271); experiment: μHTS-TNKS-IWR2 TR-FRET binding assay (TNKS1)
T1 construct: construct: 1088-1327, 1266M
Method: (§1) μHTS-TNKS-IWR2TR-FRET Binding Assay
(§2) (10 μL/well in BD1536-well plate, a single point)
Reagents and Stock Solutions
(§3) Biotin-IWR2: 10 mM Biotin-IWR2 stock in DMSO, stored at −20° C.
Assay buffer 1a (AB 1a) for TNKS dilution: 50 mM Tris, pH 7.4, 100 mM sodium chloride solution, 1 mM magnesium chloride solution, 1 mM DL-dithiothreitol solution, 0.2 mg/mL bovine serum albumin solution, 0.025% NP-40.
Assay buffer 1b (AB 1b) for Biotin-IWR2 dilution: 50 mM Tris, pH 7.4, 100 mM sodium chloride solution, 1 mM magnesium chloride solution, 1 mM DL-dithiothreitol solution, 0.2 mg/mL bovine serum albumin solution, 0.05% NP-40
Assay buffer 1c (AB 1c) for compound dilution: 50 mM Tris, pH 7.4, 100 mM sodium chloride solution, 1 mM magnesium chloride solution, 1 mM DL-dithiothreitol solution, 0.2 mg/mL bovine serum albumin solution
Assay buffer 2 (AB2) for Eu/APC: 50 mM Tris, pH 7.4, 100 mM sodium chloride solution, 1 mM magnesium chloride solution, 0.2 mg/mL bovine serum albumin solution
Reagent Stock Solution Preparation
Prepare BLANK well stock solution: 5% DMSO/AB1b buffer
Prepare TNKS1 stock solution (5× stock): 300 nM TNKS in AB1a buffer
(§4) Transfer 3 μL/well above solution (solution 1,2,3) to an empty assay plate (BD1536-well plate) as follows:
TOTL and cpd wells: Solution 1 (Biotin-IWR2):
BLNK wells: Solution 2 (No Biotin-IWR2):
POSITIVE CONTROL wells: Solution 3 (Biotin-IWR2+XAV939)
(§5) Transfer 3 μL/well of the above diluted compound solutions or compound dilution buffer to the above assay plate.
(§6) Add 2 μL/well of 300 nM TNKS stock solution (4) to every well in the above assay plate.
Centrifuge the assay plate at 2100 rpm for 2 minutes.
(§7) Incubate the assay plate at 26° C. for 30 minutes.
(§8) Incubate the assay plate at 26° C. for 60 minutes.

[1] = target: T2, PARP1 (His6-PARP1, full length) (Homo sapiens, UniProt P09874); experiment: μHTS-TNKS-IWR2 TR-FRET binding assay with His6-PARP1 in place of TNKS1; conditions: Table I
T2 construct: His6-PARP1 (full length)
Method: as §1, §2
(§9) Alternatively, in place of His6-TNKS1 can use either His6-tankyrase 2 (construct: 934-1166) (His6-TNKS2) or His6-PARP1 (full length).
as §3
Positive control: 10 mM […] in DMSO, stored at −20° C.
(§10) Prepare Biotinylated IWR2 stock solution (3.33× stock) for TOTL and cpd wells: 200 nM Biotin-IWR2 in 5% DMSO/AB1b buffer
(§11) Prepare POSITIVE CONTROL well stock solution (3.33× stock): 200 nM XAV939 in 200 nM Biotin-IWR2/5% DMSO/AB1b buffer
(§12) (Alternatively, use TNKS2 or PARP1 stock solutions.)
(§13) Prepare Eu/APC stock solution (5× stock): 3.5 nM Eu-SA/50 nM APC-His6Ab in AB2 buffer
(§14) Add 25 μL/well 1.5% DMSO/AB1c buffer in each compound well to the compound concentration at 74 μM in 8.8% DMSO/AB1c buffer or in the 2 μL DMSO CONTROL wells (BLANK, TOTAL and POSITIVE wells) in the compound plate.
as §4, §5, §6, §7, §8
(§15) Read the assay plate immediately at excitation wavelength of 330 nm and emission wavelength of […] in time resolved fluorescence mode.
(§16) Representative compound data for assays are listed below in Table I. Values are in uM.

tankyrase 2 (His6-TNKS2) = target: T3, tankyrase 2 (His6-TNKS2) (Homo sapiens, UniProt Q9H2K2); experiment: μHTS-TNKS-IWR2 TR-FRET binding assay with His6-TNKS2 in place of TNKS1; conditions: Table I
T3 construct: His6-tankyrase 2 (construct: 934-1166)
Method: as §1, §2, §9, §3
Positive control: 10 mM XAV 939 in DMSO, stored at −20° C.
as §10, §11, §12, §13, §14, §4, §5, §6, §7, §8, §15, §16

T1 sequence (O95271 1088-1327): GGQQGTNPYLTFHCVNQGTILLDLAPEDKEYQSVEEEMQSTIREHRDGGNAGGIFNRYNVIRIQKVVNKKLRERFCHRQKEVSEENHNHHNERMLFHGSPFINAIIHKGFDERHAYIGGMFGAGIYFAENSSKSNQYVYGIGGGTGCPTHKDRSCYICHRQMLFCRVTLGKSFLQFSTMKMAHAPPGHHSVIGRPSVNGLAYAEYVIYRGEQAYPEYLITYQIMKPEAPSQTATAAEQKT
T3 sequence (Q9H2K2 934-1166): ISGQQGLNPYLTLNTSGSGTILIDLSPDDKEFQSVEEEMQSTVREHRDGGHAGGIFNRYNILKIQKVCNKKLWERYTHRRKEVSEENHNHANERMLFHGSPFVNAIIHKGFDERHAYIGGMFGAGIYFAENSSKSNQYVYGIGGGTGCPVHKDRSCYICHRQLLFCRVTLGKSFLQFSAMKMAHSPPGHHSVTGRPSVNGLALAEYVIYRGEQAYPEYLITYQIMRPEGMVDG
T2 sequence (P09874 whole entry): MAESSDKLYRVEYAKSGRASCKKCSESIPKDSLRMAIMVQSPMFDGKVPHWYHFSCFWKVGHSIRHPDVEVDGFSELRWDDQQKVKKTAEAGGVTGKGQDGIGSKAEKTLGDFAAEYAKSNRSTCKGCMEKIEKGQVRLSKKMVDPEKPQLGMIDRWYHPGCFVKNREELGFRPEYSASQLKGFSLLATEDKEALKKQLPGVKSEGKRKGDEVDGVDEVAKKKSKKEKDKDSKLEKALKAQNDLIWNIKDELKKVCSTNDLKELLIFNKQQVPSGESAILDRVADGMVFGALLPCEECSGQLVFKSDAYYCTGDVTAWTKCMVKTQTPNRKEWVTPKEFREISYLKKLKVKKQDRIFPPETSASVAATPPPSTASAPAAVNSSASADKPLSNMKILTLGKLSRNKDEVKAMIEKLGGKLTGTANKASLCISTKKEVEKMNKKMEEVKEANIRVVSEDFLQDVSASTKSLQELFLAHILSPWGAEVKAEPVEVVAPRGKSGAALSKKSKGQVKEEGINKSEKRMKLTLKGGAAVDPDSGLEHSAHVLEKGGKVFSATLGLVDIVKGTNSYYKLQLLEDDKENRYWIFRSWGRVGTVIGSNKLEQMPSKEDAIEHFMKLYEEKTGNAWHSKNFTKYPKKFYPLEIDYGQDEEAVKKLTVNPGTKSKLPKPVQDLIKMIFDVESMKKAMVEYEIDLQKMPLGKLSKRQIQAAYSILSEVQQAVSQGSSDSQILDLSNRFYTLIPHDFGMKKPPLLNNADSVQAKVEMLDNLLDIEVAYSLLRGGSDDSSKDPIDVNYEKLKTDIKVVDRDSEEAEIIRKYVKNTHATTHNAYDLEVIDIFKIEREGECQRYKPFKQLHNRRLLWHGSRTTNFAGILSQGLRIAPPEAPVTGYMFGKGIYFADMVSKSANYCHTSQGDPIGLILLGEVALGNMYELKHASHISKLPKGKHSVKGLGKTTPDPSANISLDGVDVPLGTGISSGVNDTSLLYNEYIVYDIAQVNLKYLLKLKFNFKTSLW

Cn1ccc2c(=O)[nH]c(N3CCN(c4ccncc4)CC3)nc21 [Example 1, 7-Methyl-2-(4-pyridin-4-yl-piperazin-1-yl)-3,7-dihydro-pyrrolo[2,3-d]pyrimidin-4-one] gave an IC50 (Tankyrase 1 (TNKS1)) of 722 nM, an IC50 [1] of 143 nM and an IC50 (tankyrase 2 (His6-TNKS2)) of 593 nM.
In the case of CCOC(=O)c1ccc(N2CCN(c3nc4c(ccn4C)c(=O)[nH]3)CC2)cc1 [Example 2, Ethyl 4-(4-(7-methyl-4-oxo-4,7-dihydro-3H-pyrrolo[2,3-d]pyrimidin-2-yl)piperazin-1-yl)benzoate], the IC50 (Tankyrase 1 (TNKS1)) is reported as 70 nM, the IC50 [1] is reported as 564 nM and the IC50 (tankyrase 2 (His6-TNKS2)) is reported as 66 nM.
For Cn1ccc2c(=O)[nH]c(N3CCN(c4ccc(Cl)cc4)CC3)nc21 [Example 3, 2-[4-(4-Chloro-phenyl)-piperazin-1-yl]-7-methyl-3,7-dihydro-pyrrolo[2,3-d]pyrimidin-4-one], the IC50 (Tankyrase 1 (TNKS1)) was 42 nM, the IC50 [1] was 1060 nM and the IC50 (tankyrase 2 (His6-TNKS2)) was 51 nM.
Work on Cn1ccc2c(=O)[nH]c(N3CCN(c4ccccn4)CC3)nc21 [Example 4, 7-Methyl-2-(4-pyridin-2-yl-piperazin-1-yl)-3,7-dihydro-pyrrolo[2,3-d]pyrimidin-4-one] yielded an IC50 (Tankyrase 1 (TNKS1)) of 134 nM, an IC50 [1] of 437 nM and an IC50 (tankyrase 2 (His6-TNKS2)) of 118 nM.
With Cn1ccc2c(=O)[nH]c(N3CCN(c4ccc(F)cc4S(C)(=O)=O)CC3)nc21 [Example 5, 2-[4-(4-Fluoro-2-methanesulfonyl-phenyl)-piperazin-1-yl]-7-methyl-3,7-dihydro-pyrrolo[2,3-d]pyrimidin-4-one] the IC50 (Tankyrase 1 (TNKS1)) was 30 nM, the IC50 [1] was 1180 nM and the IC50 (tankyrase 2 (His6-TNKS2)) was 35 nM.
Cn1ccc2c(=O)[nH]c(N3CCN(c4ncccc4C(F)(F)F)CC3)nc21 [Example 6, 7-Methyl-2-[4-(3-trifluoromethyl-pyridin-2-yl)-piperazin-1-yl]-3,7-dihydro-pyrrolo[2,3-d]pyrimidin-4-one] was tested, and the IC50 (Tankyrase 1 (TNKS1)) was 34 nM, the IC50 [1] was 2210 nM and the IC50 (tankyrase 2 (His6-TNKS2)) was 36 nM.
Cn1ccc2c(=O)[nH]c(N3CCN(c4cc(Cl)cc(Cl)c4)CC3)nc21 [Example 7, 2-[4-(3,5-Dichloro-phenyl)-piperazin-1-yl]-7-methyl-3,7-dihydro-pyrrolo[2,3-d]pyrimidin-4-one] gave an IC50 (Tankyrase 1 (TNKS1)) of 494 nM, an IC50 [1] greater than 50000 nM and an IC50 (tankyrase 2 (His6-TNKS2)) of 405 nM.
Work on Cn1ccc2c(=O)[nH]c(N3CCN(c4ncccn4)CC3)nc21 [Example 8, 7-Methyl-2-(4-pyrimidin-2-yl-piperazin-1-yl)-3,7-dihydro-pyrrolo[2,3-d]pyrimidin-4-one] yielded an IC50 (Tankyrase 1 (TNKS1)) of 190 nM, an IC50 [1] of 339 nM and an IC50 (tankyrase 2 (His6-TNKS2)) of 143 nM.
Cn1ccc2c(=O)[nH]c(N3CCN(c4ncccc4C#N)CC3)nc21 [Example 9, 2-[4-(7-Methyl-4-oxo-4,7-dihydro-3H-pyrrolo[2,3-d]pyrimidin-2-yl)-piperazin-1-yl]-nicotinonitrile] was tested, and the IC50 (Tankyrase 1 (TNKS1)) was 70 nM, the IC50 [1] was 618 nM and the IC50 (tankyrase 2 (His6-TNKS2)) was 63 nM.
In the case of Cn1ccc2c(=O)[nH]c(N3CCN(c4nccnc4C#N)CC3)nc21 [Example 10, 4-(7-Methyl-4-oxo-4,7-dihydro-3H-pyrrolo[2,3-d]pyrimidin-2-yl)-3,4,5,6-tetrahydro-2H-[1,2]bipyrazinyl-3′-carbonitrile], the IC50 (Tankyrase 1 (TNKS1)) is reported as 111 nM, the IC50 [1] is reported as 603 nM and the IC50 (tankyrase 2 (His6-TNKS2)) is reported as 121 nM.
CN1CCN(c2nc3c(ccn3C)c(=O)[nH]2)CC1 [Example 11, 7-Methyl-2-(4-methyl-piperazin-1-yl)-3,7-dihydro-pyrrolo[2,3-d]pyrimidin-4-one] was tested, and the IC50 (Tankyrase 1 (TNKS1)) was 358 nM, the IC50 [1] was 471 nM and the IC50 (tankyrase 2 (His6-TNKS2)) was 285 nM.
Cn1ccc2c(=O)[nH]c(N3CCOCC3)nc21 [Example 12, 7-Methyl-2-morpholin-4-yl-3,7-dihydro-pyrrolo[2,3-d]pyrimidin-4-one] showed an IC50 (Tankyrase 1 (TNKS1)) of 1910 nM, an IC50 [1] of 1720 nM and an IC50 (tankyrase 2 (His6-TNKS2)) of 1830 nM.
Cn1ccc2c(=O)[nH]c(N3CCN(S(C)(=O)=O)CC3)nc21 [Example 13, 2-(4-Methanesulfonyl-piperazin-1-yl)-7-methyl-3,7-dihydro-pyrrolo[2,3-d]pyrimidin-4-one] gave an IC50 (Tankyrase 1 (TNKS1)) of 112 nM, an IC50 [1] of 604 nM and an IC50 (tankyrase 2 (His6-TNKS2)) of 126 nM.
